# Data reported in US5216142A, “Anti-virals” (Efamol Holdings plc, priority 1989, dated 1993).
# Test system: herpes simplex virus Type I (HSV I)
# Assay: Inhibition of virus replication (plaque assay, BHK-21 cells)
# Format: cell-based, Type 1, Troisbel strain
# Settings: Human alphaherpesvirus 1, BHK-21, 24 h; 0.1 mg/l; read-out: Inhibition of viral replication (log10 reduction in virus titre)
# Protocol: 1. Mono-layers of baby hamster kidney cells (BHK-21) are prepared in Petri dishes containing ETC medium (Eagle's minimal essential medium +10% tryptose phosphate broth +10% new born calf serum).
# 2. After incubation the medium is poured off to leave the layer of cells attached to the Petri dish. A solution containing virus, specifically herpes simplex virus Type I (HSV I) for example, in ETC medium is then added to the dish and incubated with intermittent rocking for one hour to allow the virus to adsorb to the cells of the mono-layer. Unadsorbed virus is then removed by pouring off the virus-containing medium and washing twice with new sterile medium. Then new medium is added to each Petri dish. At this stage various concentrations of drug can be added to the medium.
# 3. […] First the dishes are frozen to -70° C. and thawed to disrupt the mono-layer and break up the cells. Then the medium and the disrupted cells are transferred to bijou bottles and sonicated to break down the cells completely and to release all the virus particles the cells contain. The sonicated medium is then diluted with fresh sterile ETC medium to give concentrations of the original Petri dish fluid of 10^-2, 10^-4, 10^-6 and 10^-8.
# 4. The number of virus particles (plaque forming units) in the dilutions is then assayed. A standard number of BHK cells (usually 8×10^6) is added to 2 ml of the diluted solutions and incubated for one hour, with cautious, gentle shaking, and 8 ml of Eagle's minimal essential medium +2% new born calf serum + carboxymethyl cellulose is then added to the cell suspension. This medium has gelling properties which prevent spreading of the virus through the medium and which encourage the formation of discrete plaques in cell mono-layers. The medium from each dilution is then dispensed into Petri dishes and incubated for two to three days.
# 5. The number of plaques formed is then counted and the amount of active virus expressed as the number of plaque forming units (pfus) as follows. The medium is poured off and the cell mono-layer is fixed using 10% formol saline and stained with dilute carbol fuchsin. The number of plaques in each Petri dish is counted. Based on the dilutions, the number of plaque forming virus particles in the original solutions is calculated.
# In the Table, the figures are the concentration of viral particles in pfu/ml present in the cells + medium at the end of the replication stage (3).
row,SMILES,log reduction at 0.1 µg/mL
1,CCCCC/C=C\C/C=C\CCCCCCCC(=O)Nc1nc2c(ncn2COCCO)c(=O)[nH]1 [AK 13],2.45

# Same assay, conditions: Human alphaherpesvirus 1, BHK-21, 24 h; 1 mg/l; read-out: Inhibition of viral replication (log10 reduction in virus titre)
row,SMILES,log reduction at 1 µg/mL
1,CCCCC/C=C\C/C=C\CCCCCCCC(=O)Nc1nc2c(ncn2COCCO)c(=O)[nH]1 [AK 13],4.3

# Same assay, conditions: Human alphaherpesvirus 1, BHK-21, 24 h; 25 mg/l; read-out: Inhibition of viral replication (log10 reduction in virus titre)
row,SMILES,log reduction at 25 µg/mL
1,"CCCCC/C=C\C/C=C\C/C=C\CCCCC(=O)OC[C@H]1O[C@@H]2C[C@H]1Oc1nc(=O)c(C)cn12 [AK 3, GLA - Anhydrothymidine]",0.5

# Same assay, conditions: Human alphaherpesvirus 1, BHK-21, 24 h; 50 mg/l; read-out: Inhibition of viral replication (log10 reduction in virus titre)
row,SMILES,log reduction at 50 µg/mL
1,"CCCCC/C=C\C/C=C\C/C=C\CCCCC(=O)OC[C@H]1O[C@@H]2C[C@H]1Oc1nc(=O)c(C)cn12 [AK 3, GLA - Anhydrothymidine]",0.9

# Same assay, conditions: Human alphaherpesvirus 1, BHK-21, 24 h; 100 mg/l; read-out: Inhibition of viral replication (log10 reduction in virus titre)
row,SMILES,log reduction at 100 µg/mL
1,"CCCCC/C=C\C/C=C\C/C=C\CCCCC(=O)OC[C@H]1O[C@@H]2C[C@H]1Oc1nc(=O)c(C)cn12 [AK 3, GLA - Anhydrothymidine]",1.2

# Same assay, conditions: up to 100 mg/l
row,SMILES,Inhibition of viral replication (in words)
1,CCCCC/C=C\C/C=C\CCCCCCCC(=O)OC[C@H]1O[C@@H]2C[C@H]1Oc1nc(=O)c(C)cn12 [AK 4],no inhibition

# Test system: HTLV-IIIB
# Assay: Anti-HIV activity assay, HTLV-IIIB (MT-4 cells, MTT method)
# Format: cell-based
# Settings: CD50/ED50, HTLV-IIIB
# Protocol: (§1) Results in relation to HIV virus were obtained by the method of Pauwels et al, Journal of Virological Methods 20, 309 to 321 (1988), as follows:
# (§2) MT-4 cells (2.5×10^4 /well) were infected with HIV (100 CCID50) and incubated in the presence of varying concentrations of the test compounds (added immediately after virus infection). After five days incubation at 37° C. in a CO2 incubator, the number of viable cells was assessed by the MTT (tetrazolium) method. Anti-viral activity and cytotoxicity of the compounds are expressed as ED50 (50% effective dose) and CD50 (50% cytotoxic dose), respectively. SI (selectivity index=CD50 /ED50.
# (§3) These are given in Table 8 and Table 9 below in relation to HTLV-IIIB and LAV-2ROD viruses.
row,SMILES,Selectivity index (SI)
1,CCCCC/C=C\C/C=C\CCCCCCCC(=O)OC[C@H]1O[C@@H]2C[C@H]1Oc1nc(=O)c(C)cn12 [AK 4],< 1
2,"CCCCC/C=C\C/C=C\C/C=C\CCCCC(=O)OC[C@H]1O[C@@H]2C[C@H]1Oc1nc(=O)c(C)cn12 [AK 3, GLA - Anhydrothymidine]",< 1
3,CCCCC/C=C\C/C=C\CCCCCCCC(=O)OC[C@@H]1C=C[C@H](n2cc(C)c(=O)[nH]c2=O)O1 [AK 15],256
4,"Cc1cn([C@H]2C=C[C@@H](CO)O2)c(=O)[nH]c1=O [AK 16, dideoxy-didehydro thymidine, reference compound]",574
5,CCCCC/C=C\C/C=C\C/C=C\CCCCC(=O)OC[C@@H]1C=C[C@H](n2cc(C)c(=O)[nH]c2=O)O1 [AK 14],134

# Same assay, conditions: Human immunodeficiency virus 1, MT4, 120 h; MT-4 cells, five days, HTLV-IIIB; read-out: ED50 (50% effective dose)
row,SMILES,EC50 [µg/mL]
1,CCCCC/C=C\C/C=C\CCCCCCCC(=O)OC[C@H]1O[C@@H]2C[C@H]1Oc1nc(=O)c(C)cn12 [AK 4],> 40
2,"CCCCC/C=C\C/C=C\C/C=C\CCCCC(=O)OC[C@H]1O[C@@H]2C[C@H]1Oc1nc(=O)c(C)cn12 [AK 3, GLA - Anhydrothymidine]",> 40
3,CCCCC/C=C\C/C=C\CCCCCCCC(=O)OC[C@@H]1C=C[C@H](n2cc(C)c(=O)[nH]c2=O)O1 [AK 15],0.064
4,"Cc1cn([C@H]2C=C[C@@H](CO)O2)c(=O)[nH]c1=O [AK 16, dideoxy-didehydro thymidine, reference compound]",0.077
5,CCCCC/C=C\C/C=C\C/C=C\CCCCC(=O)OC[C@@H]1C=C[C@H](n2cc(C)c(=O)[nH]c2=O)O1 [AK 14],0.076

# Test system: not given
# Assay: not given
# Settings: not given
row,SMILES,"% in chloroform phase (partition co-efficients, water/chloroform) [%]"
1,CCCCC/C=C\C/C=C\CCCCCCCC(=O)OC[C@H]1O[C@@H]2C[C@H]1Oc1nc(=O)c(C)cn12 [AK 4],> 99
2,"CCCCC/C=C\C/C=C\C/C=C\CCCCC(=O)OC[C@H]1O[C@@H]2C[C@H]1Oc1nc(=O)c(C)cn12 [AK 3, GLA - Anhydrothymidine]",> 98

# Test system: not listed separately
# Assay: in vitro
# Format: cell-based
# Settings: human, mt-4 cells, CD50 (50% cytotoxic dose)
# Protocol: as §1, §2
row,SMILES,CC50 at 120 h [µg/mL]
1,CCCCC/C=C\C/C=C\CCCCCCCC(=O)OC[C@H]1O[C@@H]2C[C@H]1Oc1nc(=O)c(C)cn12 [AK 4],18.2
2,"CCCCC/C=C\C/C=C\C/C=C\CCCCC(=O)OC[C@H]1O[C@@H]2C[C@H]1Oc1nc(=O)c(C)cn12 [AK 3, GLA - Anhydrothymidine]",17.7
3,CCCCC/C=C\C/C=C\CCCCCCCC(=O)OC[C@@H]1C=C[C@H](n2cc(C)c(=O)[nH]c2=O)O1 [AK 15],16.5
4,"Cc1cn([C@H]2C=C[C@@H](CO)O2)c(=O)[nH]c1=O [AK 16, dideoxy-didehydro thymidine, reference compound]",44.4
5,CCCCC/C=C\C/C=C\C/C=C\CCCCC(=O)OC[C@@H]1C=C[C@H](n2cc(C)c(=O)[nH]c2=O)O1 [AK 14],10.3

# Test system: MT-4 cells
# Assay: in vitro
# Format: cell-based
# Settings: human, 120 h
# Protocol: as §1, §2
row,SMILES,CD50 (50% cytotoxic dose) [µg/mL]
1,CCCCC/C=C\C/C=C\CCCCCCCC(=O)OC[C@H]1O[C@@H]2C[C@H]1Oc1nc(=O)c(C)cn12 [AK 4],17.4332
2,"CCCCC/C=C\C/C=C\C/C=C\CCCCC(=O)OC[C@H]1O[C@@H]2C[C@H]1Oc1nc(=O)c(C)cn12 [AK 3, GLA - Anhydrothymidine]",16.8593
3,CCCCC/C=C\C/C=C\CCCCCCCC(=O)OC[C@@H]1C=C[C@H](n2cc(C)c(=O)[nH]c2=O)O1 [AK 15],24.23
4,"Cc1cn([C@H]2C=C[C@@H](CO)O2)c(=O)[nH]c1=O [AK 16, dideoxy-didehydro thymidine, reference compound]",46.65
5,CCCCC/C=C\C/C=C\C/C=C\CCCCC(=O)OC[C@@H]1C=C[C@H](n2cc(C)c(=O)[nH]c2=O)O1 [AK 14],8.84

# Test system: herpes simplex virus Type I
# Assay: Inactivation of virus (30 minutes incubation, plaque assay)
# Format: cell-based, Type 1, Troisbel strain
# Settings: not given
# Protocol: 1. A virus solution containing 2×10^5 pfu/ml is prepared in phosphate buffered saline (Dulbecco's A).
# 2. The compound to be tested is made up in Dulbecco's medium A in a suitable range of dilutions.
# 3. Equal volumes of the virus and drug solution are mixed together. Control solutions without drug are also used.
# 4. The virus and drug are incubated for an appropriate period of time, in this example, thirty minutes.
# 5. The numbers of active viral particles in the solution are assayed as in items 4 and 5 under A.
# The results are shown below (Table 6). In the Table, the figures are concentrations of viral particles present after incubation of the virus for 30 minutes with solutions of the drugs.
row,SMILES,Virucidal activity / inactivation of herpes virus (in words)
1,CCCCC/C=C\C/C=C\CCCCCCCC(=O)OC[C@H]1O[C@@H]2C[C@H]1Oc1nc(=O)c(C)cn12 [AK 4],virucidal
2,"CCCCC/C=C\C/C=C\C/C=C\CCCCC(=O)OC[C@H]1O[C@@H]2C[C@H]1Oc1nc(=O)c(C)cn12 [AK 3, GLA - Anhydrothymidine]",virucidal
3,CCCCC/C=C\C/C=C\CCCCCCCC(=O)Nc1nc2c(ncn2COCCO)c(=O)[nH]1 [AK 13],virucidal

# Same assay, conditions: Human alphaherpesvirus 1, 0.5 h; 0.5 mg/l; read-out: Inactivation of virus (log10 reduction in virus titre)
row,SMILES,log reduction at 0.5 µg/mL
1,"CCCCC/C=C\C/C=C\C/C=C\CCCCC(=O)OC[C@H]1O[C@@H]2C[C@H]1Oc1nc(=O)c(C)cn12 [AK 3, GLA - Anhydrothymidine]",1.6

# Same assay, conditions: Human alphaherpesvirus 1, 0.5 h; 1 mg/l; read-out: Inactivation of virus (log10 reduction in virus titre)
row,SMILES,log reduction at 1 µg/mL
1,CCCCC/C=C\C/C=C\CCCCCCCC(=O)OC[C@H]1O[C@@H]2C[C@H]1Oc1nc(=O)c(C)cn12 [AK 4],2.75
2,"CCCCC/C=C\C/C=C\C/C=C\CCCCC(=O)OC[C@H]1O[C@@H]2C[C@H]1Oc1nc(=O)c(C)cn12 [AK 3, GLA - Anhydrothymidine]",2.7
3,CCCCC/C=C\C/C=C\CCCCCCCC(=O)Nc1nc2c(ncn2COCCO)c(=O)[nH]1 [AK 13],1.3

# Same assay, conditions: Human alphaherpesvirus 1, 0.5 h; 5 mg/l; read-out: Inactivation of virus (log10 reduction in virus titre)
row,SMILES,log reduction at 5 µg/mL
1,CCCCC/C=C\C/C=C\CCCCCCCC(=O)OC[C@H]1O[C@@H]2C[C@H]1Oc1nc(=O)c(C)cn12 [AK 4],2.9
2,CCCCC/C=C\C/C=C\CCCCCCCC(=O)Nc1nc2c(ncn2COCCO)c(=O)[nH]1 [AK 13],1.8

# Test system: LAV-2ROD
# Assay: Anti-HIV activity assay, LAV-2ROD (MT-4 cells, MTT method)
# Format: cell-based
# Settings: CD50/ED50, LAV-2ROD
# Protocol: as §1, §2, §3
row,SMILES,Selectivity index (SI)
1,CCCCC/C=C\C/C=C\CCCCCCCC(=O)OC[C@H]1O[C@@H]2C[C@H]1Oc1nc(=O)c(C)cn12 [AK 4],< 1
2,"CCCCC/C=C\C/C=C\C/C=C\CCCCC(=O)OC[C@H]1O[C@@H]2C[C@H]1Oc1nc(=O)c(C)cn12 [AK 3, GLA - Anhydrothymidine]",< 1
3,CCCCC/C=C\C/C=C\CCCCCCCC(=O)OC[C@@H]1C=C[C@H](n2cc(C)c(=O)[nH]c2=O)O1 [AK 15],378
4,"Cc1cn([C@H]2C=C[C@@H](CO)O2)c(=O)[nH]c1=O [AK 16, dideoxy-didehydro thymidine, reference compound]",1196
5,CCCCC/C=C\C/C=C\C/C=C\CCCCC(=O)OC[C@@H]1C=C[C@H](n2cc(C)c(=O)[nH]c2=O)O1 [AK 14],110

# Same assay, conditions: MT4, 120 h; MT-4 cells, five days, LAV-2ROD; read-out: ED50 (50% effective dose)
row,SMILES,EC50 [µg/mL]
1,CCCCC/C=C\C/C=C\CCCCCCCC(=O)OC[C@H]1O[C@@H]2C[C@H]1Oc1nc(=O)c(C)cn12 [AK 4],> 40
2,"CCCCC/C=C\C/C=C\C/C=C\CCCCC(=O)OC[C@H]1O[C@@H]2C[C@H]1Oc1nc(=O)c(C)cn12 [AK 3, GLA - Anhydrothymidine]",> 40
3,CCCCC/C=C\C/C=C\CCCCCCCC(=O)OC[C@@H]1C=C[C@H](n2cc(C)c(=O)[nH]c2=O)O1 [AK 15],0.064
4,"Cc1cn([C@H]2C=C[C@@H](CO)O2)c(=O)[nH]c1=O [AK 16, dideoxy-didehydro thymidine, reference compound]",0.039
5,CCCCC/C=C\C/C=C\C/C=C\CCCCC(=O)OC[C@@H]1C=C[C@H](n2cc(C)c(=O)[nH]c2=O)O1 [AK 14],0.08
